Entries after “also recorded” stand apart in the source; their conditions may differ.

The values below come from patent publication US8236794B2, “Treatment of mesothelioma” (Ed. Geistlich Soehne AG fuer Chemische Industrie, priority 2003, dated 2012).

Data set [1] deals with human malignant glioma cell line LN-229. The data set can be described thus: Cell viability and Fas-ligand mediated apoptosis in glioma cells. As to conditions: LN-229 cells; for Effect on destruction of cells by Fas-ligand: combined with Fas-ligand. The data set is classed as cell-based. Here is the method: The present invention relates to the ability of methylol transfer agents, such as taurolidine, to induce cell toxicity, and to enhance Fas-ligand mediated apoptosis. Both taurolidine and its congener taurultam enhance the apoptotic effect of Fas-ligand in cancer cells at drug concentrations which per se show practically no effect on cell viability. For example, in the human malignant glioma cell line LN-229 cell viability was reduced directly following incubation with taurolidine or taurultam alone. […] Thus, the use of methylol transfer agents to induce apoptotic cell death provides a means for treating mesothelioma as in the present invention.

In data set [2] the test system is malignant mesothelioma. Put plainly: Therapy of mesothelioma with taurolidine: single-patient case, two treatment cycles, intravenous plus intrapleural. The data set is classed as in vivo, human. The text has this: The following is a case involving treatment of an individual for two treatment cycles. Patient: Diagnosis: Malignant mesothelioma two yrs. ago (stage III according to IMIG stadiation) Prior treatments: Treated with CT with Cis-Platinum/Gemcitabine, Local recurrency with pleural effusion. Treated with taurolidine 2%, Two cycles of three weeks with taurolidine both intravenous and intrapleural administration I.V: 4 bottles daily for 5 days for three weeks (2 cycles) I.P: 1 bottle daily for 5 days for three weeks (2 cycles)

For data set [3] the following is noted: cited from earlier work.

For the compound `O=S1(=O)CCNCN1` [taurultam], in data set [1], the “Effect on destruction of cells by Fas-ligand” value is reported as “enhanced the destruction of LN-229 cells by Fas-ligand” and the “Cell viability following incubation with compound alone” value is “reduced”.

With `O=S1(=O)CCN(CN2CCS(=O)(=O)NC2)CN1` [taurolidine, Bis-(1,1-dioxoperhydro-1,2,4-thiadiazinyl-4)methane], the “Main side effects, I.P. (intrapleural) administration” value in data set [2] (I.P. 1 bottle taurolidine 2% daily for 5 days for three weeks (2 cycles)) is “Local burning at the site of instillation; also recorded: Thoracic burning of significant grade”. For the same compound, the “Main side effects, I.V. administration” value in data set [2] (I.V. 4 bottles taurolidine 2% daily for 5 days for three weeks (2 cycles)) was “Mild local burning at the site of instillation; also recorded: Transient symptomatic hypthension”. In addition, in data set [2] (I.V. and I.P. administration, 2 cycles), the “Side effects obliging discontinuance of the treatment” value is listed as “None”. Moreover, the Clinical response result in data set [2] (same patient and regimen, preliminary response evaluation) is given as “Highly significant reduction of the dyspnea”. In addition, the “Patient's condition after treatment” value in data set [2] (two treatment cycles, I.V. and I.P.) is listed as “marked improvement”. In data set [1], the “Effect on destruction of cells by Fas-ligand” value is given as “enhanced the destruction of LN-229 cells by Fas-ligand” and the “Cell viability following incubation with compound alone” value is given as “reduced”. Further, the Water solubility result in data set [3] was “up to 2%”.
